# Assay results taken from US10556866B2, “ROR gamma (RORγ) modulators” (LEAD PHARMA HOLDING B.V., priority 2015, dated 2020).
# Target: T1, RORγ (Homo sapiens, UniProt P51449)
# T1 construct: expressed in transfected cells; host or cells: 293FT cells (Invitrogen), expression vector pFN26A (Promega)
# T1 sequence (P51449 269-508 limits assumed): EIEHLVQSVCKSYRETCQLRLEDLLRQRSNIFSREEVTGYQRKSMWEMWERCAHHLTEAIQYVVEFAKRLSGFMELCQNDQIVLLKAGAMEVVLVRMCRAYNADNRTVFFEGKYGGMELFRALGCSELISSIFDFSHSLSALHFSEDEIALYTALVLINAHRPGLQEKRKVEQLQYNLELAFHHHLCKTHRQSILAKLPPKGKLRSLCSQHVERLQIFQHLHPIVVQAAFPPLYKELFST
# Assay: RORγ GAL4 reporter gene assay (luciferase readout)
# Assay type: cell-based
# Conditions: inhibition of RORγ (GAL4-RORγ-LBD) in 293FT cells, luciferase signal; read-out: mean pIC50 (converted)
# Protocol: Example inhibitors 1-38 were tested for their ability to inhibit RORγ activity in a RORγ GAL4 reporter gene assay. The assay procedure and results are described below.
# A GAL4 one-hybrid reporter system employing luciferase readout was established to determine inhibition of RORγ in 293FT cells. The RORγ ligand-binding domain (LBD) was fused to the yeast GAL4 DNA binding domain (DBD) and placed under the control of the human cytomegalovirus (CMV) immediate early promoter, using expression vector pFN26A (Promega) and standard recombinant DNA cloning methods. To serve as a control in the assay, a similar vector was generated in which the GAL4-DBD was fused to Herpes simplex virus protein 16 (VP16), a constitutive transcriptional activator.
# To monitor the inhibitory effect of compounds on RORγ, a transcriptional reporter construct was used. The pGL4.35 vector (Promega) contains nine copies of the GAL4 Upstream Activator Sequence (UAS). This sequence drives the transcription of the luciferase reporter gene luc2P in response to binding of a fusion protein containing the GAL4 DNA binding domain, as for example expressed by the GAL4-RORγ-LBD and GAL4-VP16 expression vectors described above. To allow a GAL4 fusion protein to drive the expression of the luciferase reporter, the pGL4.35 expression vector and the appropriate GAL4 fusion protein expression vector were bulk transfected in the 293FT cells using standard transfection techniques.
# The day after transfection, cells were plated into 96 well plates, test compound was added and the plates were incubated overnight. Subsequently, the firefly luciferase activity was quantified using luciferase detection reagent and luminescence readout.
# 293FT cells (Invitrogen) were transfected with a GAL4 fusion protein expression vector (as described above) and the transcriptional reporter construct (pGL4.35, Promega). 60 μL of TransIT-293 transfection reagent (Mirus Bio) was added drop wise to 1500 μl Opti-MEM I Reduced Serum Medium (Invitrogen) and incubated at RT (RT) for 5 to 20 minutes. 1500 μL of this reagent mixture was added to 5 μg of GAL4 fusion protein expression vector and 5 μg of the transcriptional reporter construct, and incubated at RT for 20 minutes.
# To harvest 293FT cells from a T75 flask, first the culture medium was taken off the cells. Subsequently, the cells were washed with Phosphate Buffered Saline (PBS) (Lonza), after which the PBS was removed. To dissociate the cells, 1 ml of TrypLE Express (Invitrogen) was added to the flask, followed by incubation at RT until the cells visually started to detach. Cells were collected in 5 mL of assay medium (DMEM culture medium (Lonza), 10% dialyzed FBS (Invitrogen) and Pen/Strep (Lonza)) to achieve a single cell suspension. 10×10^6 cells were spun down and re-suspended in 10 mL of assay medium. Subsequently, the cell suspension was added to the transfection mix tube, and then transferred as a whole to a T75 flask (Greiner), followed by overnight (16-24 hours) incubation at 37° C. and 5% CO2.
# For compound screening, the cells were harvested (as described above) and counted. 13×10^6 cells were spun down, the supernatant was aspirated and the cells were re-suspended in 17.3 mL of assay medium obtaining a cell suspension of 0.75×10^6 cells/mL. 80 μL of cell suspension (60,000 cells) was plated per well into a white, flat bottom, tissue culture treated, 96 well screening plates (Greiner).
# Test compounds were diluted, starting from a 10 mM dimethylsulfoxide (DMSO) stock solution, to serial dilutions in DMSO at 500× the final test concentration. Subsequently, these solutions were diluted to 5× the final test concentration in two 10-fold-dilution steps in assay medium. The final DMSO concentration of the 5× test compound solution was 1%. 20 μL of the 5× test compound solution was added to each test well of the 96 well plate previously plated with 80 μl cell suspension, resulting in the final test concentration with 0.2% DMSO. […]
row,IC50,SMILES
1,≤ 1000 nM,"O=C(NCc1ccc(S(=O)(=O)CC2CC2)cc1)c1ccc(C(O)(C(F)F)C(F)(F)F)cc1 (stereo not shown) [Example 5, N-[[4-(cyclopropylmethylsulfonyl)phenyl]methyl]-4-[1-(difluoromethyl)-2,2,2-trifluoro-1-hydroxy-ethyl]benzamide]"
2,≤ 100 nM,"CC(C)C(O)(c1ccc(C(=O)NCc2ccc(S(=O)(=O)CC3CC3)cc2)cc1)C(F)(F)F (stereo not shown) [Example 10, N-[[4-(cyclopropylmethylsulfonyl)phenyl]methyl]-4-[1-hydroxy-2-methyl-1-(trifluoromethyl)propyl]benzamide]"
3,≤ 100 nM,"CCCOC(c1ccc(C(=O)NCc2ccc(S(=O)(=O)CC3CC3)cc2)cc1)(C(F)(F)F)C(F)(F)F [Example 24, N-[[4-(cyclopropylmethylsulfonyl)phenyl]methyl]-4-[2,2,2-trifluoro-1-propoxy-1-(trifluoromethyl)ethyl]benzamide]"
4,≤ 1000 nM,"CCCOC(c1ccc(C(=O)NCc2ccc(S(=O)(=O)NC3CC3)cc2)cc1)(C(F)(F)F)C(F)(F)F [Example 32, N-[[4-(cyclopropylsulfamoyl)phenyl]methyl]-4-[2,2,2-trifluoro-1-propoxy-1-(trifluoromethyl)ethyl]benzamide]"
5,≤ 100 nM,"Cc1cc(C(=O)NCc2ccc(S(=O)(=O)CC3CC3)cc2)ccc1C(O)(C(F)(F)F)C(F)(F)F [Example 15, N-[[4-(cyclopropylmethylsulfonyl)phenyl]methyl]-3-methyl-4-[2,2,2-trifluoro-1-hydroxy-1-(trifluoromethyl)ethyl]benzamide]"
6,≤ 1000 nM,"CCS(=O)(=O)c1ccc(CNC(=O)c2ccc(C(O)(CC(C)(C)C)C(F)(F)F)cc2)cc1 (stereo not shown) [Example 18, N-[(4-ethylsulfonylphenyl)methyl]-4-[1-hydroxy-3,3-dimethyl-1-(trifluoromethyl)butyl]benzamide]"
7,≤ 100 nM,"O=C(NCc1ccc(S(=O)(=O)CC2CC2)cc1)c1ccc(C(O)(C(F)(F)F)C(F)(F)F)cc1 [Example 4, N-[[4-(cyclopropylmethylsulfonyl)phenyl]methyl]-4-[2,2,2-trifluoro-1-hydroxy-1-(trifluoromethyl)ethyl]benzamide]"
8,≤ 1000 nM,"COC(c1ccc(C(=O)NCc2ccc(S(=O)(=O)NC3CC3)cc2)cc1)(C(F)(F)F)C(F)(F)F [Example 30, N-[[4-(cyclopropylsulfamoyl)phenyl]methyl]-4-[2,2,2-trifluoro-1-methoxy-1-(trifluoromethyl)ethyl]benzamide]"
9,< 10000 nM,"CCC(O)(c1ccc(C(=O)NCc2ccc(S(=O)(=O)CC)cc2)cc1)C(F)(F)F (stereo not shown) [Example 17, N-[(4-ethylsulfonylphenyl)methyl]-4-[1-hydroxy-1-(trifluoromethyl)propyl]benzamide]"
10,≤ 100 nM,"CCCCC(O)(c1ccc(C(=O)NCc2ccc(S(=O)(=O)CC3CC3)cc2)cc1)C(F)(F)F (stereo not shown) [Example 7, N-[[4-(cyclopropylmethylsulfonyl)phenyl]methyl]-4-[1-hydroxy-1-(trifluoromethyl)pentyl]benzamide]"
11,≤ 1000 nM,"CC(O)(c1ccc(C(=O)NCc2ccc(S(=O)(=O)CC3CC3)cc2)cc1)C(F)(F)F (stereo not shown) [Example 2, N-[[4-(cyclopropylmethylsulfonyl)phenyl]methyl]-4-(2,2,2-trifluoro-1-hydroxy-1-methyl-ethyl)benzamide]"
12,≤ 100 nM,"CC(C)CC(O)(c1ccc(C(=O)NCc2ccc(S(=O)(=O)CC3CC3)cc2)cc1)C(F)(F)F (stereo not shown) [Example 8, N-[[4-(cyclopropylmethylsulfonyl)phenyl]methyl]-4-[1-hydroxy-3-methyl-1-(trifluoromethyl)butyl]benzamide]"
13,≤ 1000 nM,"O=C(NCc1ccc(S(=O)(=O)CC2CC2)cc1)c1ccc(C(OCc2ccccc2)(C(F)(F)F)C(F)(F)F)cc1 [Example 27, 4-[1-benzyloxy-2,2,2-trifluoro-1-(trifluoromethyl)ethyl]-N-[[4-(cyclopropylmethylsulfonyl)phenyl]methyl]benzamide]"
14,≤ 1000 nM,"CCC(O)(c1ccc(C(=O)NCc2ccc(S(=O)(=O)CC3CC3)cc2)cc1)C(F)(F)F (racemic) [(−)-1, (−)-N-[[4-(cyclopropylmethylsulfonyl)phenyl]methyl]-4-[1-hydroxy-1-(trifluoromethyl)propyl]benzamide]"
15,< 10000 nM,"C[C@@H](NC(=O)c1ccc(C(O)(C(F)(F)F)C(F)(F)F)cc1)c1ccc(S(=O)(=O)CC2CC2)cc1 [Example 34, N-[(1R)-1-[4-(cyclopropylmethylsulfonyl)phenyl]ethyl]-4-[2,2,2-trifluoro-1-hydroxy-1-(trifluoromethyl)ethyl]benzamide]"

# System: IL-17A production in anti-CD3/anti-CD28 stimulated peripheral blood mononuclear cells (PBMCs)
# Assay: Peripheral blood mononuclear cell (PBMC) IL-17 assay
# Assay type: cell-based
# Conditions: 120 h, inhibition of IL-17A production, human PBMCs, 5 days, IL-17 ELISA, read-out: mean pIC50 (converted)
# Protocol: Example inhibitor 5 was tested for its ability to inhibit the IL-17A production in anti-CD3/anti-CD28 stimulated peripheral blood mononuclear cells (PBMCs) isolated from human blood. The assay procedure and results are described below.
# This assay is designed to measure the levels of IL-17A secreted from anti-CD3/anti-CD28 stimulated PBMCs with the aim of measuring RORγ mediated inhibition of IL-17A production.
# The assay medium consists of 90% RPMI 1640 (Lonza), 10% heat inactivated fetal bovin serum (FBS, Lonza) and 100 U/mL penicillin/streptomycin solution.
# Anti-CD3 antibody (BD Pharmingen) was diluted to 10 μg/ml in PBS (Lonza). 30 μL of 10 μg/ml anti-CD3 solution was added to the inner 60 wells, excluding any negative control wells, of a 96-well cell culture treated U-bottom plate (Greiner). Plates were incubated overnight (16-24 hours) at 37° C. and 5% CO2. […]
# After incubation the plates were spun down at 1500 rpm for 4 minutes and the supernatant was collected. Subsequently, the IL-17A levels in the supernatants was determined using an IL-17 ELISA kit (human IL-17 DuoSet, R&D systems) according to manufacturer's protocol.
# The half maximum inhibitory concentration (IC50) values for the test compounds were calculated from the IL-17A signal using GraphPad Prism software (GraphPad Software).
row,SMILES,IC50
1,"O=C(NCc1ccc(S(=O)(=O)CC2CC2)cc1)c1ccc(C(O)(C(F)F)C(F)(F)F)cc1 (stereo not shown) [Example 5, N-[[4-(cyclopropylmethylsulfonyl)phenyl]methyl]-4-[1-(difluoromethyl)-2,2,2-trifluoro-1-hydroxy-ethyl]benzamide]",100 nM
